Numbered stars: 1 amine (or outer) side, 2 acyl side, 3 side chain; on linkers, the order of the positions; unused ones are H or OH. Bridge positions count the residues as written; N and C are the ends. Square brackets hold non-standard residues; d marks the D form. Peptide text beside a SMILES is read from it. * marks the point of attachment. ξ: configuration not given here. Orn(4R-OH,5R-OCH2CH2NMe3+) = C[N+](C)(C)CCO[C@@H](N[*:3])[C@H](O)C[C@H](N[*:1])C(=O)[*:2]; pTerphenylCO(4''-OnC5H11) = CCCCCOc1ccc(-c2ccc(-c3ccc(C(=O)*)cc3)cc2)cc1; hTyr(3S-OH,4S-OH) = N[C@H](C(=O)O)[C@H](O)[C@@H](O)c1ccc(O)cc1; X1 = C[C@H]1CN([*:1])C(C(=O)[*:2])C1O; Hyp = O=C(O)[C@@H]1C[C@@H](O)CN1; ξT = CC(O)C(N)C(=O)O
Legend:
[1] = test system: C. parapsilosis; experiment: In vitro susceptibility testing (CLSI M27-A3); format: cell-based, Candida parapsilosis; conditions: Lodderomyces parapsilosis, 24 h
Method: Strains. Ten clinical Candida strains were used for the in vivo treatment studies, including four C. albicans, three C. glabrata, and three C. parapsilosis strains (Table 18). This group was selected to encompass phenotypic variability in susceptibility to triazoles and echinocandins and based on similar fitness in the animal model as defined by the amount of growth in control animals over 24 h. The organisms were maintained, grown, and quantified on Sabouraud's dextrose agar (SDA) plates.
In vitro susceptibility testing. All isolates were tested in accordance with the standards in CLSI document M27-A3. The MICs were determined visually after 24 h of incubation as the lowest concentration of drug that causes a significant diminution (≥50%) of growth compared to controls. MICs were determined on three separate occasions in duplicate.

[2] = Pharmacokinetic profile in mice after subcutaneous dose; format: in vivo; conditions: mouse, plasma, 10 mg/kg SC
[3] = test system: Candida albicans ATCC SC5314; experiment: Prophylaxis, neutropenic ICR mouse candidiasis model, kidney CFU; format: in vivo
Method: Candidiasis model: ICR mice (5/group) were rendered neutropenic by cyclophosphamide on Day −4 (150 mg/kg) and Day −1 (100 mg/kg), then challenged (Day 0) with Candida albicans ATCC SC5314 via IV (100 μL, […] CFU/mouse). Prior to challenge, mice were given one SC dose (5, 10, or 20 mg/kg) of CD101 on Day −5, Day −3, or Day −1. At 24 hours post-challenge, kidneys were removed for CFU enumeration.

[4] = test system: A. fumigatus (ATCC 13073); experiment: Disseminated infection of immune competent DBA/2 mice, prophylaxis, survival; format: in vivo, Aspergillus fumigatus
Method: A. fumigatus (ATCC 13073) growth was taken from 96 hour potato dextrose agar (PDA) and re-suspended in 0.1% Tween 20. The culture was resuspended in 1 mL cold PBS (>1.0×10^8 CFU/mL, OD620 2.3-2.8). The culture was then diluted in PBS to final cellular densities of 1.0×10^7 CFU/mL. The actual colony counts were determined by plating dilutions on PDA plates to confirm inoculation concentration. The actual inoculum count was 1.30×10^7 CFU/mL.
Groups of 6 immune competent female DBA/2 mice weighing 18±2 g were used. On Day 0, animals were inoculated (0.1 mL/mouse) by intravenous (IV) injection into the tail vein with A. fumigatus (ATCC 13073), 1.30×10^6 CFU per mouse. CD101 at 3, 10 and 30 mg/kg as prophylaxis was administered subcutaneously (SC) once starting 5, 3 or 1 day before inoculation. In addition, CD101 at 3 mg/kg SC and the reference, amphotericin B, at 3 mg/kg by intraperitoneal (IP) injection were administered one hour after infection (See Table 2).
A 50 percent or more (≥50%) increase in the survival rate compared to the vehicle control group indicates significant anti-infective activity. The health observations including body weight, hunched posture, ruffled fur, immobility and hypothermia were recorded daily for 14 days.

[5] = test system: Candida albicans (ATCC SC5314); experiment: Disseminated candidiasis in immunocompetent DBA/2 mice, prophylaxis, kidney fungal burden; format: in vivo
Method: Cultures of Candida albicans (ATCC SC5314) were grown overnight at 37° C. in an ambient atmosphere on Sabouraud agar. Cultures were removed from the incubator, aseptically transferred to tubes of phosphate buffered saline (PBS), and an optical density was determined at 600 nm. The cultures were diluted to provide a challenge inoculate of approximately 5.0 log10 CFU per mouse in a volume of 100 μL. Each animal was administered an intravenous (IV) challenge in a volume of 100 IL on Day 0. Instillation of the challenge constituted time 0 hour for the study.
Mice were treated with CD101 one time via subcutaneous (SC) injection prior to challenge on either Day −5, Day −3, Day −1 or Day 0 per Table 3. Micafungin and vehicle controls were administered on Day 0 as per Table 3. Day 0 treatment or control administration occurred immediately following the challenge. Test articles were administered in a volume of 0.5 mL.
The primary endpoint used to assess progress of the infection was mean CFU burden per gram of kidney tissue. At 24 hours post-challenge, mice were humanely euthanized via CO2 overexposure. Kidneys were aseptically removed, weighed, and transferred to sterile tubes containing 2 mL of PBS. Tissues were homogenized with a mini-bead beater. Serial dilutions of the tissue homogenates were plated on Sabouraud dextrose agar plates and incubated at 37° C. for 24-48 hours. CFU/g tissue was determined from colony counts.

## CCCCCOc1ccc(-c2ccc(-c3ccc(C(=O)N[C@H]4C[C@@H](O)[C@@H](OCC[N+](C)(C)C)NC(=O)C5C(O)[C@@H](C)CN5C(=O)[C@H]([C@@H](C)O)NC(=O)[C@H]([C@H](O)[C@@H](O)c5ccc(O)cc5)NC(=O)[C@@H]5C[C@@H](O)CN5C(=O)C(C(C)O)NC4=O)cc3)cc2)cc1 (stereo partly drawn) [CD101] ({pTerphenylCO(4''-OnC5H11)}-[Orn(4R-OH,5R-OCH2CH2NMe3+)][ξT][Hyp][hTyr(3S-OH,4S-OH)]T[X1]; lactam 1-C)
[1]; strain 20423.072
  MIC: 0.5 µg/mL
[1]; strain 20477.048
  MIC: 1 µg/mL
[1]; strain 20519.069
  MIC: 1 µg/mL
[2]
  half-life: ~25 h
[2]; read-out: absolute bioavailability
  bioavailability: ~50%
[3]; 10 mg/kg SC single dose at Day −3 and Day −1, 24 h post-challenge, all animals
  kidney CFU: Complete clearance
[3]; 20 mg/kg SC on Day −3, all but one animal
  kidney CFU: Complete clearance
[3]; 20 mg/kg SC on Day −5, −3 or −1
  kidney CFU: reduced CFU burden regardless of prophylactic treatment day
[3]; 5 or 10 mg/kg SC at Day −3 and Day −1
  kidney CFU: significant decrease in CFU
[4]; 3 mg/kg SC 1 hour after infection
  14-day survival: significant increase in the 14-day survival
[4]; 3, 10 and 30 mg/kg SC on Day −5, −3 and −1
  symptoms of infection (body weight, hunched posture, ruffled fur, immobility, hypothermia): improved
[4]; SC: 3 mg/kg Day −1, 10 mg/kg Day −5, −3, −1, 30 mg/kg Day −5, −3, −1
  increase in the 14-day survival compared to the vehicle group: 50%
[5]; 3 mg/kg SC Day −1, all but one animal
  kidney CFU: cleared the infection completely
[5]; 3 mg/kg SC on Day −5 and Day −3 (two doses, inadvertent)
  kidney CFU: completely cleared the infection
[5]; 10 or 30 mg/kg SC at all pre-challenge time points, 24 hr harvest
  kidney CFU: cleared the infection completely

From patent publication US20240076347A1, “METHODS FOR PREVENTING FUNGAL INFECTIONS” (Cidara Therapeutics, Inc., priority 2016, published 2024)
